Experimental data as given in patent US8541460B2, “PDK-1/Akt signaling inhibitors” (The Ohio State University, priority 2003, dated 2013).

Legend:
SK-MEL-2 = assay: NCI DTP cell line screen (SRB), Melanoma; assay type: cell-based
Method: (§1) Screening of compounds 70 and 71 against several cancer cell lines The human tumor cell lines of the cancer screening panel are grown in RPMI 1640 medium containing 5% fetal bovine serum and 2 mM L-glutamine. For a typical screening experiment, cells are inoculated into 96 well microtiter plates in 100 μL at plating densities ranging from 5,000 to 40,000 cells/well depending on the doubling time of individual cell lines. After cell inoculation, the microtiter plates are incubated at 37° C., 5% CO2, 95% air and 100% relative humidity for 24 h prior to addition of experimental drugs.
(§2) After 24 h, two plates of each cell line are fixed in situ with TCA, to represent a measurement of the cell population for each cell line at the time of drug addition (Tz). Experimental drugs are solubilized in dimethyl sulfoxide at 400-fold the desired final maximum test concentration and stored frozen prior to use. At the time of drug addition, an aliquot of frozen concentrate is thawed and diluted to twice the desired final maximum test concentration with complete medium containing 50 μg/ml gentamicin. Additional four, 10-fold or ½ log serial dilutions are made to provide a total of five drug concentrations plus control. Aliquots of 100 μl of these different drug dilutions are added to the appropriate microtiter wells already containing 100 μl of medium, resulting in the required final drug concentrations.
(§3) Following drug addition, the plates are incubated for an additional 48 h at 37° C., 5% CO2, 95% air, and 100% relative humidity. For adherent cells, the assay is terminated by the addition of cold TCA. Cells are fixed in situ by the gentle addition of 50 μl of cold 50% (w/v) TCA (final concentration, 10% TCA) and incubated for 60 minutes at 4° C. The supernatant is discarded, and the plates are washed five times with tap water and air dried. Sulforhodamine B (SRB) solution (100 μl) at 0.4% (w/v) in 1% acetic acid is added to each well, and plates are incubated for 10 minutes at room temperature. After staining, unbound dye is removed by washing five times with 1% acetic acid and the plates are air dried. Bound stain is subsequently solubilized with 10 mM trizma base, and the absorbance is read on an automated plate reader at a wavelength of 515 nm. For suspension cells, the methodology is the same except that the assay is terminated by fixing settled cells at the bottom of the wells by gently adding 50 μl of 80% TCA (final concentration, 16% TCA). Using the seven absorbance measurements [time zero, (Tz), control growth, (C), and test growth in the presence of drug at the five concentration levels (Ti)], the percentage growth is calculated at each of the drug concentrations levels. Percentage growth inhibition is calculated as: [(Ti−Tz)/(C−Tz)]×100 for concentrations for which Ti>/=Tz [(Ti−Tz)/Tz]×100 for concentrations for which Ti<Tz
(§4) Three dose response parameters are calculated for each experimental agent. […] The drug concentration resulting in total growth inhibition (TGI) is calculated from Ti=Tz. […] Values are calculated for each of these three parameters if the level of activity is reached; however, if the effect is not reached or is exceeded, the value for that parameter is expressed as greater or less than the maximum or minimum concentration tested.
(§5) The methods described were used to test compounds 70 and 71 on a panel of sixty cell lines under a screening service provided by the Developmental Therapeutics Program at the National Institutes of Health. Shown in FIG. 1C are 1, RPMI-8226 leukemia cells; 2; NCI-H322M non-small cell lung cancer cells; 3, HT29 colon cancer cells; 4, U251 CNS cancer cells; 5, SK-MEL-28 melanoma cancer cells; 6, SK-OV-3 ovarian cancer cells; 7, RXF 393 renal cancer cells; 8, PC-3 prostate cancer cells; 9, MDA-MB-231 breast cancer cells.

[1] = tested on: sixty human tumor cell lines; assay: NCI DTP screen, means over sixty human tumor cell lines; assay type: cell-based; conditions: two-day treatment
Method: as §1, §2
Following drug addition, the plates are incubated for an additional 48 h at 37° C., 5% CO2, 95% air, and 100% relative humidity. For adherent cells, the assay is terminated by the addition of cold TCA. Cells are fixed in situ by the gentle addition of 50 μl of cold 50% (w/v) TCA (final concentration, 10% TCA) and incubated for 60 minutes at 4° C. […] Bound stain is subsequently solubilized with 10 mM trizma base, and the absorbance is read on an automated plate reader at a wavelength of 515 nm. […] Using the seven absorbance measurements [time zero, (Tz), control growth, (C), and test growth in the presence of drug at the five concentration levels (Ti)], the percentage growth is calculated at each of the drug concentrations levels. Percentage growth inhibition is calculated as: [(Ti−Tz)/(C−Tz)]×100 for concentrations for which Ti>/=Tz [(Ti−Tz)/Tz]×100 for concentrations for which Ti<Tz
as §4, with “tested. […]” for “tested.”

MALME-3M = assay: NCI DTP cell line screen (SRB), Melanoma; assay type: cell-based
DU-145 = assay: NCI DTP cell line screen (SRB), Prostate Cancer; assay type: cell-based
Method: as §1, §2, §3, §4, §5

PC-3 = assay: NCI DTP cell line screen (SRB), Prostate Cancer; assay type: cell-based
Method: as §1, §2, §3, §4, §5

CAKI-1 = assay: NCI DTP cell line screen (SRB), Renal Cancer; assay type: cell-based, human
Method: as §1, §2, §3, §4, §5

UO-31 = assay: NCI DTP cell line screen (SRB), Renal Cancer; assay type: cell-based, human
Method: as §1, §2, §3, §4, §5

RXF 393 = assay: NCI DTP cell line screen (SRB), Renal Cancer; assay type: cell-based, human; conditions: RXF 393
Method: as §1, §2, §3, §4, §5

ACHN = assay: NCI DTP cell line screen (SRB), Renal Cancer; assay type: cell-based, human
Method: as §1, §2, §3, §4, §5

Question: Which TGI (SK-MEL-2) does the source give for NCC(=O)Nc1ccc(-n2nc(C(F)(F)F)cc2-c2ccc3c(ccc4ccccc43)c2)cc1 [Compound 70, 2-Amino-N-{4-[5-(2-phenanthrenyl)-3-(trifluoromethyl)-1H-pyrazol-1-yl]-phenyl}-acetamide] here?
Answer: 5.40E−06

Question: And the “Percent Growth” value (SK-MEL-2; Log10 Concentration −4.0)?
Answer: −28%

Question: And the “Percent Growth” value (SK-MEL-2; Log10 Concentration −5.0)?
Answer: −37%

Question: What about the “Percent Growth” value (SK-MEL-2; Log10 Concentration −6.0) of the same molecule?
Answer: 100%

Question: What about the “Percent Growth” value (SK-MEL-2; Log10 Concentration −7.0) of the same molecule?
Answer: 117%

Question: What about the “Percent Growth” value (SK-MEL-2; Log10 Concentration −8.0) of the same molecule?
Answer: 114%

Question: What about the “mean TGI among the sixty cell lines” value [1] of the same molecule?
Answer: 3.2 µM

Question: And the TGI (MALME-3M)?
Answer: 3.67E−06

Question: What about the “Percent Growth” value (MALME-3M; Log10 Concentration −4.0) of the same molecule?
Answer: −56%

Question: And the “Percent Growth” value (MALME-3M; Log10 Concentration −5.0)?
Answer: −67%

Question: What about the “Percent Growth” value (MALME-3M; Log10 Concentration −6.0) of the same molecule?
Answer: 87%

Question: What about the “Percent Growth” value (MALME-3M; Log10 Concentration −7.0) of the same molecule?
Answer: 93%

Question: And the “Percent Growth” value (MALME-3M; Log10 Concentration −8.0)?
Answer: 92%

Question: And the TGI (DU-145)?
Answer: 3.47E−06

Question: What about the “Percent Growth” value (DU-145; Log10 Concentration −4.0) of the same molecule?
Answer: −60%

Question: What about the “Percent Growth” value (DU-145; Log10 Concentration −5.0) of the same molecule?
Answer: −76%

Question: And the “Percent Growth” value (DU-145; Log10 Concentration −6.0)?
Answer: 90%

Question: And the “Percent Growth” value (DU-145; Log10 Concentration −7.0)?
Answer: 109%

Question: And the “Percent Growth” value (DU-145; Log10 Concentration −8.0)?
Answer: 105%

Question: And the TGI (PC-3)?
Answer: 2.38E−06

Question: And the “Percent Growth” value (PC-3; Log10 Concentration −4.0)?
Answer: −55%

Question: What about the “Percent Growth” value (PC-3; Log10 Concentration −5.0) of the same molecule?
Answer: −77%

Question: What about the “Percent Growth” value (PC-3; Log10 Concentration −6.0) of the same molecule?
Answer: 47%

Question: What about the “Percent Growth” value (PC-3; Log10 Concentration −7.0) of the same molecule?
Answer: 69%

Question: And the “Percent Growth” value (PC-3; Log10 Concentration −8.0)?
Answer: 89%

Question: And the “Percent Growth” value (CAKI-1; Log10 Concentration −4.0)?
Answer: −44%

Question: And the “Percent Growth” value (CAKI-1; Log10 Concentration −5.0)?
Answer: −75%

Question: And the “Percent Growth” value (CAKI-1; Log10 Concentration −6.0)?
Answer: 42%

Question: What about the “Percent Growth” value (CAKI-1; Log10 Concentration −7.0) of the same molecule?
Answer: 95%

Question: What about the “Percent Growth” value (CAKI-1; Log10 Concentration −8.0) of the same molecule?
Answer: 87%

Question: What about the TGI (CAKI-1; in M (unit assumed)) of the same molecule?
Answer: 2.27E−06

Question: What about the “Percent Growth” value (UO-31; Log10 Concentration −4.0) of the same molecule?
Answer: −36%

Question: And the “Percent Growth” value (UO-31; Log10 Concentration −5.0)?
Answer: −64%

Question: And the “Percent Growth” value (UO-31; Log10 Concentration −6.0)?
Answer: 68%

Question: What about the “Percent Growth” value (UO-31; Log10 Concentration −7.0) of the same molecule?
Answer: 84%

Question: And the “Percent Growth” value (UO-31; Log10 Concentration −8.0)?
Answer: 84%

Question: And the TGI (UO-31; in M (unit assumed))?
Answer: 3.29E−06

Question: What about the “Percent Growth” value (RXF 393; Log10 Concentration −4.0) of the same molecule?
Answer: 10%

Question: And the “Percent Growth” value (RXF 393; Log10 Concentration −5.0)?
Answer: −56%

Question: And the “Percent Growth” value (RXF 393; Log10 Concentration −6.0)?
Answer: 56%

Question: What about the “Percent Growth” value (RXF 393; Log10 Concentration −7.0) of the same molecule?
Answer: 75%

Question: What about the “Percent Growth” value (RXF 393; Log10 Concentration −8.0) of the same molecule?
Answer: 91%

Question: What about the “Percent Growth” value (ACHN; Log10 Concentration −4.0) of the same molecule?
Answer: −16%

Question: And the “Percent Growth” value (ACHN; Log10 Concentration −5.0)?
Answer: −60%

Question: And the “Percent Growth” value (ACHN; Log10 Concentration −6.0)?
Answer: 70%

Question: What about the “Percent Growth” value (ACHN; Log10 Concentration −7.0) of the same molecule?
Answer: 102%

Question: What about the “Percent Growth” value (ACHN; Log10 Concentration −8.0) of the same molecule?
Answer: 94%

Question: What about the TGI (ACHN; in M (unit assumed)) of the same molecule?
Answer: 3.45E−06
